According to patent publication US7629379B2, “Substituted phosphonate fluorescent sensors and use thereof” (Queen Mary & Westfield College, priority 2003, dated 2009):
Structures can show the parent of a compound that is named as a salt.

Tests used:
[1] = tested on: Zn^+2 in fibrosarcoma cells; test: Imaging of Zn^+2 in fibrosarcoma cells; assay type: cell-based; settings: added to any of the wells with phosphonate and zinc

SMILES	uptake into cells (Fibrosarcoma cells)	melting point	further results
O=P([O-])([O-])Cn1c2ccccc2c2ccccc21.[Na+].[Na+] [di sodium N-carbazolylmethylphosphonate]	taken up in the cytoplasm within the fibrosarcoma cells	–	penetration of brain cell types and regions (Slices of rat brain): went into the endothelial and neuronal cells
Cc1cc(=O)oc2cc(OCP(=O)(O)O)ccc12 [di-sodium salt of Example 5, 4-methylcoumarin 7-oxymethylphosphonic acid]	taken up in the cytoplasm within the fibrosarcoma cells	–	–
O=P(O)(O)COc1cccc2cccnc12 (as salt: salt) [Example 2, 8-quinolyloxy methylphosphonic acid]	–	285 to 288 °C	–
CCOP(=O)(COc1ccc2c(c1)[nH]c1ccccc12)OCC [Example 8, diethyl-2-carbazolyloxymethylphosphonate]	taken up in the cytoplasm within the fibrosarcoma cells	159 °C	–
c1ccc(CN(CCN(Cc2ccccn2)Cc2ccccn2)Cc2ccccn2)nc1 [TPEN, N,N,N′,N′-tetrakis(2-pyridylmethyl)ethylenediamine]	–	–	effect of excess chelator on the cell fluorescence [1]: very significant quenching of the fluorescence
O=P(O)(O)COc1ccc2c(c1)[nH]c1ccccc12 [Example 9, 2-carbazolyloxymethyl phosphonic acid]	–	291 °C	–
